pIC50: −log10 of the molar value.
The compounds below were run against T1, USP28 (His-tagged USP28-FL-mammalian) (Homo sapiens, UniProt Q96RU2) (assay: Ubiquitin-Rhodamine 110 Assay for USP28 Activity, Example A-1(a)). Settings: Ubiquitin-Rhodamine 110 assay, Example A-1(a); read-out: USP28 A-1(a) IC50 range.
T1 construct: Expression of USP28 (1-1077)-TEV-6*His (pTT5 vector); made in house; host or cells: Expi293f cells (pTT5 vector)
T1 sequence (Q96RU2 1-1077): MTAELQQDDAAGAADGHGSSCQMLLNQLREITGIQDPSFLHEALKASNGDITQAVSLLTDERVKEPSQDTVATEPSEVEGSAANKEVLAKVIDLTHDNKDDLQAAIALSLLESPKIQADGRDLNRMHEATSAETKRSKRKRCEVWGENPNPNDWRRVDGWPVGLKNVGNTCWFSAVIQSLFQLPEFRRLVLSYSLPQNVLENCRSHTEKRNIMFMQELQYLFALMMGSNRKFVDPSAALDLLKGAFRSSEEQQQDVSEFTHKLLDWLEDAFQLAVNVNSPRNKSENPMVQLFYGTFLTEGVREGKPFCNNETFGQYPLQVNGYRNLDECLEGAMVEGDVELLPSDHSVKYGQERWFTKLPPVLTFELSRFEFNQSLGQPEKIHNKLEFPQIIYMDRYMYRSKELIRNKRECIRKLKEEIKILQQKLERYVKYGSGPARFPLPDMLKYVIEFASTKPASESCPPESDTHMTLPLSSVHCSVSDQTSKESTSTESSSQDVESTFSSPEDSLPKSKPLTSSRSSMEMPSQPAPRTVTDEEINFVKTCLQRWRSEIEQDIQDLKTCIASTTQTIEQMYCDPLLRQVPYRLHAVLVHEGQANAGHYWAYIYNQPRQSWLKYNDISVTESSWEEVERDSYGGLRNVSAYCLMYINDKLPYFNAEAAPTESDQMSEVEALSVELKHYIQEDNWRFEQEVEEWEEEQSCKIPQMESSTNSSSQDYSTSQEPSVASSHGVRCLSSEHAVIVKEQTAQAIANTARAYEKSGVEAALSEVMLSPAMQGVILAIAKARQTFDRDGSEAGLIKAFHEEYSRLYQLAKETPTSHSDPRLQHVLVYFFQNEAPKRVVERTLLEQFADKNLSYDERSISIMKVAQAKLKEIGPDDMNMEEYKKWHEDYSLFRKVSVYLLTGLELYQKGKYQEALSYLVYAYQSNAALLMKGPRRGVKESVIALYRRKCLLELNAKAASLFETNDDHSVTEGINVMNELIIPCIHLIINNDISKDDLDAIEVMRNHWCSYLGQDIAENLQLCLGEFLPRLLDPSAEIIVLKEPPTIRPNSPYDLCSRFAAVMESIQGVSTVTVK
Format: biochemical
Outline: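 Full-length His-tagged human USP28 (1-1077, Expi293f-expressed), […], with 25 nM Ub-Rh110 (<<Km) in pH 8.0 Tris buffer with BME, BGG, Triton X-100. 10-point dilutions (25 μM-1.3 nM), 45 min at room temperature, citric acid stop, fluorescence 485/535 nm; IC50 by 4-parameter fit.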

| SMILES | pIC50 |
| --- | --- |
| Cc1ccc2c(N)c(C(=O)N[C@H]3CCc4nc(N5C[C@H]6COC[C@@H](C5)[C@H]6N)ccc4C3)sc2n1 [Example 396, 3-amino-6-methyl-N-[(6S)-2-[(1R,5S,9r)-9-amino-3-oxa-7-azabicyclo[3.3.1]nonan-7-yl]-5,6,7,8-tetrahydroquinolin-6-yl]thieno[2,3-b]pyridine-2-carboxamide] | 6.70 to 7.30 |
| Cc1ccc2c(N)c(C(=O)N[C@H]3CCc4nc(N5C[C@H]6COC[C@@H](C5)[C@@H]6N)ccc4C3)sc2n1 [Example 397, 3-amino-6-methyl-N-[(6S)-2-[(1R,5S,9s)-9-amino-3-oxa-7-azabicyclo[3.3.1]nonan-7-yl]-5,6,7,8-tetrahydroquinolin-6-yl]thieno[2,3-b]pyridine-2-carboxamide] | 6.70 to 7.30 |
| Cc1ccc2c(N)c(C(=O)N[C@H]3CCc4nc(N5CC6(C[C@@H](N)CO6)C5)ccc4C3)sc2n1 [Example 398, 3-amino-N-[(6S)-2-[(7R)-7-amino-5-oxa-2-azaspiro[3.4]octan-2-yl]-5,6,7,8-tetrahydroquinolin-6-yl]-6-methylthieno[2,3-b]pyridine-2-carboxamide] | 6.70 to 7.30 |
| Cc1ccc2c(N)c(C(=O)N[C@H]3CCc4nc(N5CC6(C[C@H](N)CO6)C5)ccc4C3)sc2n1 [Example 399, 3-amino-N-[(6S)-2-[(7S)-7-amino-5-oxa-2-azaspiro[3.4]octan-2-yl]-5,6,7,8-tetrahydroquinolin-6-yl]-6-methylthieno[2,3-b]pyridine-2-carboxamide] | 7.30 to 9.00 |
| CCn1ccc2cc(C(=O)N[C@H]3CCc4nc(N5C[C@H](NC)[C@@H](OC)C5)ccc4C3)cnc21 [Example 402, 1-ethyl-N-[(6S)-2-[(3S,4S)-3-methoxy-4-(methylamino)pyrrolidin-1-yl]-5,6,7,8-tetrahydroquinolin-6-yl]-1H-pyrrolo[2,3-b]pyridine-5-carboxamide] | 5.70 to 6.70 |
| CCn1ccc2cc(C(=O)N[C@H]3CCc4nc(N5C[C@H](N)C6(COC6)C5)ccc4C3)cnc21 [Example 403, N-[(6S)-2-[(8R)-8-amino-2-oxa-6-azaspiro[3.4]octan-6-yl]-5,6,7,8-tetrahydroquinolin-6-yl]-1-ethyl-1H-pyrrolo[2,3-b]pyridine-5-carboxamide] | < 5.70 |
| CCn1ccc2cc(C(=O)N[C@H]3CCc4nc(N5C[C@@H](N)C6(COC6)C5)ccc4C3)cnc21 [Example 404, N-[(6S)-2-[(8S)-8-amino-2-oxa-6-azaspiro[3.4]octan-6-yl]-5,6,7,8-tetrahydroquinolin-6-yl]-1-ethyl-1H-pyrrolo[2,3-b]pyridine-5-carboxamide] | 5.70 to 6.70 |
| Cc1ccc2c(N)c(C(=O)N[C@H]3CCc4nc(N5CC[C@@]6(C5)OCC[C@H]6N)ccc4C3)sc2n1 [Example 405, 3-amino-N-[(6S)-2-[(4R,5S)-4-amino-1-oxa-7-azaspiro[4.4]nonan-7-yl]-5,6,7,8-tetrahydroquinolin-6-yl]-6-methylthieno[2,3-b]pyridine-2-carboxamide] | 6.70 to 7.30 |
| Cc1ccc2c(N)c(C(=O)N[C@H]3CCc4nc(N5CC[C@]6(C5)OCC[C@@H]6N)ccc4C3)sc2n1 [Example 406, 3-amino-N-[(6S)-2-[(4S,5R)-4-amino-1-oxa-7-azaspiro[4.4]nonan-7-yl]-5,6,7,8-tetrahydroquinolin-6-yl]-6-methylthieno[2,3-b]pyridine-2-carboxamide] | 5.70 to 6.70 |
| Cc1ccc2c(N)c(C(=O)N[C@H]3CCc4nc(N5CC[C@@]6(C5)OCC[C@@H]6N)ccc4C3)sc2n1 [Example 407, 3-amino-N-[(6S)-2-[(4S,5S)-4-amino-1-oxa-7-azaspiro[4.4]nonan-7-yl]-5,6,7,8-tetrahydroquinolin-6-yl]-6-methylthieno[2,3-b]pyridine-2-carboxamide] | 6.70 to 7.30 |
| Cc1ccc2c(N)c(C(=O)N[C@H]3CCc4nc(N5CC[C@]6(C5)OCC[C@H]6N)ccc4C3)sc2n1 [Example 408, 3-amino-N-[(6S)-2-[(4R,5R)-4-amino-1-oxa-7-azaspiro[4.4]nonan-7-yl]-5,6,7,8-tetrahydroquinolin-6-yl]-6-methylthieno[2,3-b]pyridine-2-carboxamide] | 6.70 to 7.30 |
| Cc1ccc2c(N)c(C(=O)N[C@H]3COc4cc(N5CC[C@]6(C5)OCC[C@H]6N)ccc4C3)sc2n1 [Example 410, 3-amino-N-[(3R)-7-[(4R,5R)-4-amino-1-oxa-7-azaspiro[4.4]nonan-7-yl]-3,4-dihydro-2H-1-benzopyran-3-yl]-6-methylthieno[2,3-b]pyridine-2-carboxamide] | 7.30 to 9.00 |
| Cc1ccc2c(N)c(C(=O)N[C@H]3COc4cc(N5CC[C@@]6(C5)OCC[C@@H]6N)ccc4C3)sc2n1 [Example 411, 3-amino-N-[(3R)-7-[(4S,5S)-4-amino-1-oxa-7-azaspiro[4.4]nonan-7-yl]-3,4-dihydro-2H-1-benzopyran-3-yl]-6-methylthieno[2,3-b]pyridine-2-carboxamide] | 7.30 to 9.00 |
| COC[C@H]1[C@H](N)CCN1c1ccc2c(n1)CC[C@H](NC(=O)c1sc3nc(C)ccc3c1N)C2 [Example 419, 3-amino-N-[(6S)-2-[(2R,3R)-3-amino-2-(methoxymethyl)pyrrolidin-1-yl]-5,6,7,8-tetrahydroquinolin-6-yl]-6-methylthieno[2,3-b]pyridine-2-carboxamide] | 6.70 to 7.30 |
| COC[C@@H]1[C@@H](N)CCN1c1ccc2c(n1)CC[C@H](NC(=O)c1sc3nc(C)ccc3c1N)C2 [Example 420, 3-amino-N-[(6S)-2-[(2S,3S)-3-amino-2-(methoxymethyl)pyrrolidin-1-yl]-5,6,7,8-tetrahydroquinolin-6-yl]-6-methylthieno[2,3-b]pyridine-2-carboxamide] | 7.30 to 9.00 |
| CCn1ccc2cc(C(=O)N[C@H]3CCc4nc(N5C[C@H](N)[C@@H](C(F)(F)F)C5)ccc4C3)cnc21 [Example 421, N-[(6S)-2-[(3R,4S)-3-amino-4-(trifluoromethyl)pyrrolidin-1-yl]-5,6,7,8-tetrahydroquinolin-6-yl]-1-ethyl-1H-pyrrolo[2,3-b]pyridine-5-carboxamide] | 6.70 to 7.30 |
| CCn1ccc2cc(C(=O)N[C@H]3CCc4nc(N5C[C@@H](N)[C@H](C(F)(F)F)C5)ccc4C3)cnc21 [Example 422, N-[(6S)-2-[(3S,4R)-3-amino-4-(trifluoromethyl)pyrrolidin-1-yl]-5,6,7,8-tetrahydroquinolin-6-yl]-1-ethyl-1H-pyrrolo[2,3-b]pyridine-5-carboxamide] | 5.70 to 6.70 |
| Cc1ccc2c(N)c(C(=O)N[C@H]3COc4cc(N5C[C@@H](CF)[C@@H](N)C5)ccc4C3)sc2n1 [Example 423, 3-amino-N-[(3R)-7-[(3R,4R)-3-amino-4-(fluoromethyl)pyrrolidin-1-yl]-3,4-dihydro-2H-1-benzopyran-3-yl]-6-methylthieno[2,3-b]pyridine-2-carboxamide] | 7.30 to 9.00 |
| Cc1ccc2c(N)c(C(=O)N[C@H]3COc4cc(N5C[C@@H](N)[C@@H]6OCC[C@@H]65)ccc4C3)sc2n1 [Example 425, N-[(3R)-7-[(3aS,6R,6aS)-6-amino-hexahydro-2H-furo[3,2-b]pyrrol-4-yl]-3,4-dihydro-2H-1-benzopyran-3-yl]-3-amino-6-methylthieno[2,3-b]pyridine-2-carboxamide] | 7.30 to 9.00 |
| Cc1ccc2c(N)c(C(=O)N[C@H]3COc4cc(N5C[C@H](N)[C@H]6OCC[C@H]65)ccc4C3)sc2n1 [Example 426, N-[(3R)-7-[(3aR,6S,6aR)-6-amino-hexahydro-2H-furo[3,2-b]pyrrol-4-yl]-3,4-dihydro-2H-1-benzopyran-3-yl]-3-amino-6-methylthieno[2,3-b]pyridine-2-carboxamide] | 7.30 to 9.00 |

From US11524966B1 (Valo Early Discovery, Inc., priority 2017, dated 2022)
